Values quoted from earlier work, collected in patent US5780243A, “Methods for the quantitative analysis of organic compounds” (Thaco Research, Ltd., priority 1996, dated 1998).

- solubility in organic solvents: virtual insolubility
SMILES: CNC1C(O)C(NC)C2OC3(O)C(=O)CC(C)OC3OC2C1O (stereo not shown) [spectinomycin, decahydro-4a,7,9-trihydroxy-2-methyl-6,8-bis(methylamino)-4H-pyrano[2,3-b][1,4]benzodioxin-4-one]
